For orientation: IC50 means the midpoint of a concentration-inhibition curve.

The record followed here is paper PMC9921564, “Novel Indole-Containing Hybrids Derived from Millepachine: Synthesis, Biological Evaluation and Antitumor Mechanism Study” (Molecules, 2023).

Molecules are shown by their SMILES.

For test [1], the system named is MCF-10A (normal human mammary epithelial cells). In words: CCK-8 cytotoxicity, MCF-10A normal cells. Format: cell-based. The text has this:
A549 (non-small-cell-lung cancer cell line), Caski (human epithelial cervical cancer cell line), HepG2 (human liver carcinoma cell line), MCF-7 (human breast carcinoma cell line), C42B (human prostate cancer line C42B), L-02 (human normal hepatocytes), RWPE-1 (human prostate epithelial cells) and MCF-10A (human normal mammary epithelial cells) were obtained from National Collection of Authenticated Cell Cultures (Shanghai, China). A549/CDDP (A549 cell line resistant to cisplatin), C42B/ENZR (C42b cell line resistant to Enzalutamide), MCF-7/DOX (MCF-7 cell line resistant to doxorubicin), A2780/TAX (human ovarian cancer cell line A2780 resistant to taxol) and HCT-8/VCR (human ileocecum carcinoma cell lines HCT-8 resistant to vincristine) were kindly provided by Professor Junjian Wang and Professor Xingshu Li at Sun Yat-Sen University, China. […]
(§1) After 24 h, the medium containing different concentrations of tested compounds were added for another 48 h. […] The optical density was recorded with a microplate reader at 570 nm (Thermo Scientific, Varioskan LUX). All the experiments were repeated independently at least three times and the IC50 values were calculated […]

Test [2] relates to RWPE-1 (human prostate epithelial cells). In words: CCK-8 cytotoxicity, RWPE-1 normal cells. Type of test: cell-based.
Excerpt: High cytotoxicity is one of the most limiting factors in chemotherapeutics.
A549 (non-small-cell-lung cancer cell line), Caski (human epithelial cervical cancer cell line), HepG2 (human liver carcinoma cell line), MCF-7 (human breast carcinoma cell line), C42B (human prostate cancer line C42B), L-02 (human normal hepatocytes), RWPE-1 (human prostate epithelial cells) and MCF-10A (human normal mammary epithelial cells) were obtained from National Collection of Authenticated Cell Cultures (Shanghai, China). […]
as §1
The fluorescence intensity enhancement (emission wavelength is 410 nm, excitation wavelength is 340 nm) was recorded every 60 s for 60 min in a multifunction microplate reader (Molecular Devices, Flex Station 3). […]

As to `COc1ccc(C(=O)c2ccc3c(ccn3C)c2)c2c1C=CC(C)(C)O2` [compound 14b, (5-methoxy-2,2-dimethyl-2H-chromen-8-yl)(1-methyl-1H-indol-5-yl)methanone], the IC50 was determined as 6.26 ± 0.311 µM in test [1] (Homo sapiens, MCF-10A, 48 h, CCK-8, normal cells, read-out: IC50, Mean ± SE, MCF-10A) and 3.698 ± 0.036 µM in test [2] (Homo sapiens, RWPE-1, 48 h, CCK-8, normal cells, read-out: IC50, Mean ± SE, RWPE-1). Also, the “Selectivity Ratio” value was found to be 231.7 in test [1] (IC50 MCF-10A / IC50 MCF-7) and 72.51 in test [2] (IC50 RWPE-1 / IC50 C42B).
